Results as given in US12121525B2, “Methods for treating GI syndrome and graft versus host disease” (Sloan Kettering Institute for Cancer Research, priority 2007, dated 2024).

Columns and labels:
C57BL/6 hepatocytes [1] = assay type: cell-based
Protocol: FIGS. 16A-16F. In vivo activated allogeneic CTLs require target hepatocyte ASMase for efficient killing ex vivo. Hepatocytes, isolated as described in Example 1, were coincubated with splenic T cells harvested from lethally-irradiated wild type C57BL/6 recipients 10-14 days following transplantation of LP BM+T cells. FIG. 16A: 2×10^6 GvH-activated CTLs were coincubated with 0.5×10^6 wild type C57BL/6 or B6.MRL.1pr (FasR^−/−) hepatocytes (left panel) in complete medium for 16 hr. […] Apoptosis was quantified following fixation by nuclear bisbenzimide staining. FIG. 16B: asmase^−/− hepatocytes are resistant to apoptosis induced by GvH-activated CTLs. CTL coincubation was performed as in FIG. 16A and apoptosis was quantified 16 hr thereafter. FIG. 16C: Representative images of asmase^+/+ (top left panel) and asmase^−/− (bottom left panel) C57BL/6 hepatocytes following 10 min coincubation in suspension with 2×10^6 GvH-activated T cells. Hepatocytes were fixed and stained with DAPI and Cy-3-labelled anti-ceramide mAb as described in Example 1. Arrows indicate ceramide-rich platform generation on the outer leaflet of the plasma membrane. […] FIG. 16D: Quantification of ceramide-rich platforms in asmase^+/+ and asmase^−/− hepatocytes following incubation with 2×10^6 GvH-activated CTLs. […] Apoptosis was quantified as in FIG. 16A. […] 0.5×10^6 wild type hepatocytes, preincubated with 50 μg/mL nystatin for 30 min and resuspended in RPMI containing 1% lipid-free FBS, were coincubated with 2×10^6 GvH-activated T cells and apoptosis was quantified as in FIG. 16A. […]
To assess whether ceramide-mediated raft clustering into membrane platforms is an essential component of cytolytic T cell (CTL)-induced apoptosis of hepatocytes, we blocked raft clustering pharmacologically and examined the impact on alloactivated CTL-induced hepatocyte apoptosis in vitro. […] Co-incubation induced increased hepatocyte apoptosis from a baseline of 4.7±0.7% to 33.8±1.9% by 16 hr, as detected by nuclear morphologic changes (FIG. 16A). […]

C57BL/6 hepatocytes [2] = assay type: cell-based; conditions: not shown
Protocol: Whereas Fas-mediated apoptotic death receptor activation requires generation of ceramide-rich platforms in some cell systems, CTL-induced platform generation was assessed in asmase^+/+ and asmase^−/− hepatocytes in the ex vivo model of GvHD. Alloactivated T cells induced rapid generation of ceramide-rich platforms on the surface of the target hepatocytes 10 min following co-incubation (FIG. 16C). Platform generation increased within one minute, peaked at 10 min, and persisted for over 60 min (FIG. 16D). Fas, required for apoptosis in this system, concentrated within the ceramide-rich platform as determined by confocal microscopy.
Platforms were detected as previously described. […]; Sigma-Aldrich) for 45 min at 4° C., washed twice in PBS containing 0.1% Triton X-100 and mounted in fluorescent mounting medium (Dako, Carpenteria CA). Fluorescence was detected using an Axiovert S-100 Zeiss fluorescence microscope equipped with a SPOT digital camera. The percentage of cells containing platforms, i.e. those in which the fluorescence condenses onto less than 15% of the cell surface, was determined by counting 150-250 cells per point. Alternately, platforms were identified using a mouse monoclonal anti-ceramide antibody MID 15B4 IgM (1:50 dilution, Alexis Biochemicals), mouse monoclonal anti-Fas CH-11 IgM (1:500 dilution, Upstate Biotechnology) or polyclonal rabbit anti-ASMase antibody 1598 (1:100 dilution) and detected using Cy3-conjugated anti-mouse or anti-rabbit IgM (1:500 dilution, Roche Molecular Biochemicals), respectively. Rabbit polyclonal anti-CD46 (1:1000 dilution, Santa Cruz Biotechnology, Santa Cruz CA) was used as a negative control. In some studies, confocal images were obtained using a Leica TCS SPZ upright confocal microscope. Alternatively, 0.5×10^6hepatocytes were stimulated for the indicated times with CTLs and platform formation was assessed as described.

C57BL/6 mice = conditions: intravenous, prior to TBI; cited from earlier work
C57BL/6 splenocytes [3] = assay: MLR-primed CTL-induced splenocyte lysis (51Cr release); assay type: cell-based, mouse; conditions: 500 nM
Protocol: To show the generic role of target cell ASMase in T cell-induced lysis, we used two standardized assays for T cell function; MLR-primed CTL-induced splenocyte lysis (FIG. 17) and in vitro activation-induced cell death (AICD) of T cells (FIG. 18). The role of target cell ASMase was assessed in an in vitro activated MLR, in which C57BL/6 splenocyte target cells of asmase^+/+ or asmase^−/− genotype were stimulated for 48 hrs with mitogen, washed and chromium labeled. These cells were then coincubated with effector Balb/c splenocytes activated for 5 days by culture with irradiated C57BL/6 splenocytes. Chromium release was quantified and the % lysis was calculated. […] Washed splenocytes cells were coincubated with increasing ratios of activated effector Balb/c T cells, and ^51Cr release was quantified 6 hour thereafter. […]
To evaluate a potential generic role for target cell ASMase in platform generation in T cell-induced lysis, we tested two standardized assays for T cell-mediated cytolysis, MLR-primed CTL-induced splenocyte lysis, and in vitro AICD of T cells. […] Furthermore, MLR-primed CTLs induced 43.2±6.5% asmase^+/+ splenocyte lysis at an effector:target ratio of 50:1 (FIG. 19B), attenuated to 7.3±2.5% lysis in asmase^−/− target cells, as quantified by ^51Cr-release assay. […]

splenic T cells [4] = assay: Platform generation in T cells after AICD induction; conditions: 500 nM; not shown
C57BL/6 splenocytes [5] = assay: Platform generation on target splenocytes coincubated with MLR-primed CTLs; conditions: 500 nM
splenic T cells [6] = assay: Activation-induced cell death (AICD) assay, T cell apoptosis; assay type: cell-based, mouse; conditions: 500 nM; 16 hr
Text: To define a role for target cell ASMase in AICD, asmase^+/+, asmase^−/− or MRL.1pr (FasR^−/−) T cells were stimulated for 24 hr with 10 microgam/ml ConA, washed, rested in medium containing 20 U/ml rIL-2 for 24 hr, and finally AICD was initiated by restimulation in medium containing 20 U/ml rIL-2 and increasing concentrations of plate bound anti-CD3 mAb for 24 hr. AICD induction by anti-CD3 mAb conferred ceramide-rich platform generation 4 hr following stimulation (FIG. 19D), evident in 26.4±1.6% of the population of asmase^+/+ T cells compared to 5.1±1.0% of asmase^−/− T cells (p<0.005). Confocal analysis identified colocalization of the sphingolipid GM1 (FIG. 19E) and Fas within ceramide-rich platforms in asmase^+/+ T cells.
To characterize the impact of platform generation on AICD, asmase^+/+ and asmase^−/− T cells were induced to undergo AICD and apoptosis was quantified 16 hr thereafter. Apoptosis in asmase^+/+ T cells was anti-CD3 mAb dose-dependent, reaching 32.9±5.2% apoptosis 16 hr post induction (FIG. 19F). […]
Harvested splenocytes were enriched for T lymphocytes by nylon wool passage, resulting in >90% purity based upon FITC-CD3 mAb staining by flow cytometry. […] Cells were subsequently fixed, stained with 25 μl of 24 μg/ml bis-benzimide trihydrochloride solution (Hoechst #33258; Sigma-Aldrich, Milwaukee Wisc.) and apoptosis was quantified by fluorescence microscopy, as above.

C[C@@H]1[C@H](O)[C@@H](C)/C=C/C=C/CC/C=C/C=C/C=C/C=C/C(O[C@H]2O[C@H](C)[C@@H](O)[C@H](N)[C@@H]2O)CC2O[C@](O)(CC(O)C(O)CCC(O)CC(O)CC(O)CC(=O)O[C@H]1C)CC(O)C2C(=O)O (some centres unmarked) [nystatin]
2×10^6 alloactivated CTL-induced hepatocyte apoptosis (C57BL/6 hepatocytes [1]; wild type hepatocytes preincubated with 50 μg/mL nystatin for 30 min): completely inhibited
CTL-induced ceramide-rich platform generation (C57BL/6 hepatocytes [2]; wild type hepatocytes, nystatin 50 μg/mL 30 min): abrogated

bFGF: endothelial cell survival factor
crypt stem cell clonogens (C57BL/6 mice): preserved
lethality from the GI syndrome (C57BL/6 mice): protected
radiation-induced endothelial apoptosis of the intestinal microvascular system (C57BL/6 mice): attenuated

CCCCCCCCCCCCCCCC(=O)N[C@@H](CO)[C@H](O)CCCCCCCCCCCCCCC [C16-dihydroceramide]
CTL-induced lysis of asmase−/− target splenocytes (C57BL/6 splenocytes [3]): ineffective
platform generation in asmase−/− T cells stimulated to undergo AICD (splenic T cells [4]): not
CTL-induced platform generation in asmase−/− hepatocytes (C57BL/6 hepatocytes [2]): failed to restore
platform generation on asmase−/− target splenocytes (C57BL/6 splenocytes [5]): ineffective
apoptosis of asmase−/− T cells stimulated to undergo AICD (splenic T cells [6]): not

C/C=C/[C@H]1O[C@@](O)([C@@H](C)[C@H](O)[C@H](C)[C@H]2OC(=O)/C(OC)=C/C(C)=C/[C@@H](C)[C@@H](O)[C@@H](CC)[C@@H](O)[C@H](C)C/C(C)=C/C=C/[C@@H]2OC)C[C@@H](O[C@H]2C[C@@H](O)[C@H](OC(N)=O)[C@@H](C)O2)[C@@H]1C [CMA, concanamycin A]
CTL-induced hepatocyte apoptosis (C57BL/6 hepatocytes [1]; CTLs incubated 2 hr with 100 ng/ml CMA, wild type hepatocytes, 16 hr): no effect
